Results as given in PMC10178848, “Modulating fast skeletal muscle contraction protects skeletal muscle in animal models of Duchenne muscular dystrophy” (The Journal of Clinical Investigation, 2023).
Like-named read-outs stand apart in the source and are kept apart here.

Tests used:
PLK1 = biological target: T1, PLK1 (Homo sapiens, UniProt P53350); assay: KINOMEscan scanEDGE; type: binding; details: 20 uM
T1 construct: purchased Eurofins DiscoverX (KINOMEscan; SAFETYscan E/IC50 ELECT)

MAPKAPK2 = biological target: T2, MAPKAPK2 (Homo sapiens, UniProt P49137); assay: KINOMEscan scanEDGE; type: binding; details: 20 uM
T2 construct: purchased Eurofins DiscoverX (KINOMEscan; SAFETYscan E/IC50 ELECT)

IGF1R = biological target: T3, IGF1R (Homo sapiens, UniProt P08069); assay: KINOMEscan scanEDGE; type: binding; details: 20 uM
T3 construct: purchased Eurofins DiscoverX (KINOMEscan; SAFETYscan E/IC50 ELECT)

CHRM3 = biological target: T4, CHRM3 (Homo sapiens, UniProt P20309); assay: SAFETYscan Calcium Flux; type: cell-based; set-up: dose or concentration left out as unconfirmed
T4 construct: purchased Eurofins DiscoverX (KINOMEscan; SAFETYscan E/IC50 ELECT)
Method: (§1) The specificity of EDG-5506 for fast skeletal myosin over other, unrelated proteins was confirmed using two off-target binding and activity screens. […] A second off-target panel (SAFETYscan E/IC50 ELECT, Eurofins DiscoverX) tested in vitro enzyme activity against 78 proteins, including GPCR, ion channel, kinases, nuclear hormone receptors, and transporters. In all assays, the IC50 of EDG-5506 was more than 10 μM (Supplemental Data File 1).

AVPR1A = biological target: T5, AVPR1A (Homo sapiens, UniProt P37288); assay: SAFETYscan Calcium Flux; type: cell-based; set-up: dose or concentration left out as unconfirmed
T5 construct: purchased Eurofins DiscoverX (KINOMEscan; SAFETYscan E/IC50 ELECT)
Method: as §1

HTR2A = biological target: T6, HTR2A (Homo sapiens, UniProt P28223); assay: SAFETYscan Calcium Flux; type: cell-based; set-up: dose or concentration left out as unconfirmed
T6 construct: purchased Eurofins DiscoverX (KINOMEscan; SAFETYscan E/IC50 ELECT)
Method: as §1

FGFR3 = biological target: T7, FGFR3 (Homo sapiens, UniProt P22607); assay: KINOMEscan scanEDGE; type: binding; details: 20 uM
T7 construct: purchased Eurofins DiscoverX (KINOMEscan; SAFETYscan E/IC50 ELECT)

RAF1 = biological target: T8, RAF1 (Homo sapiens, UniProt P04049); assay: KINOMEscan scanEDGE; type: binding; details: 20 uM
T8 construct: purchased Eurofins DiscoverX (KINOMEscan; SAFETYscan E/IC50 ELECT)

90 kinase proteins = assay: KINOMEscan off-target binding panel (whole panel); details: 20 μM
healthy mice, TA muscle = assay: Cardiotoxin sterile muscle injury repair; type: in vivo, mouse; details: day 8 post injury
Method: For sterile muscle injury, mice were anesthetized with isoflurane and 50 μL cardiotoxin (12 × 10^–6 M, 217503, Millipore) injected in the TA muscle. Muscles 8 days after injury were snap frozen in nitrogen-chilled isopentane. 8 μm cryosections were cut and stained with H&E. For each analysis, more than 10 slides (per condition/group) containing 6 muscle sections/sample were used, and myofibers in the injured area were counted and measured with a Mirax digital scanner and HALO software ([68]). For adult mouse studies, muscles were fixed in 10% formalin and embedded in paraffin for sectioning. Laminin staining (RB-082, Thermo Fisher Scientific) was used to outline fibers, and picrosirius red was used for collagen accumulation. Image analysis was performed using ImarisX64 software (Bitplane AG), and fiber sizing was calculated using minimal Feret’s diameter ([69]). For after weaning juvenile mouse studies, cryosections from soleus muscles were mounted in ProLong antifade mountant with DAPI (Thermo Fisher Scientific). Fiber type, size, and central nucleation were quantified with analysis via SMASH ([70]) and ImageJ (NIH). Antibodies used were mouse anti-MHC2A (1:50, SC-71, Developmental Studies Hybridoma Bank) and mouse anti-eMHC (1:10, BF-45, Developmental Studies Hybridoma Bank).

EGFR(L858R) = biological target: T9, EGFR(L858R) (Homo sapiens, UniProt P00533, L858R); assay: KINOMEscan scanEDGE; type: binding; details: 20 uM
T9 construct: purchased Eurofins DiscoverX (KINOMEscan; SAFETYscan E/IC50 ELECT)

BRAF(V600E) = biological target: T10, BRAF(V600E) (Homo sapiens, UniProt P15056, V600E); assay: KINOMEscan scanEDGE; type: binding; details: 20 uM
T10 construct: purchased Eurofins DiscoverX (KINOMEscan; SAFETYscan E/IC50 ELECT)

BMPR2 = biological target: T11, BMPR2 (Homo sapiens, UniProt Q13873); assay: KINOMEscan scanEDGE; type: binding; details: 20 uM
T11 construct: purchased Eurofins DiscoverX (KINOMEscan; SAFETYscan E/IC50 ELECT)

[1] = biological target: T12, ABL1(E255K)-phosphorylated (Homo sapiens, UniProt P00519, E255K); assay: KINOMEscan scanEDGE; type: binding; details: 20 uM
T12 construct: purchased Eurofins DiscoverX (KINOMEscan; SAFETYscan E/IC50 ELECT)

IKK-alpha = biological target: T13, IKK-alpha (Homo sapiens, UniProt O15111); assay: KINOMEscan scanEDGE; type: binding; details: 20 uM
T13 construct: purchased Eurofins DiscoverX (KINOMEscan; SAFETYscan E/IC50 ELECT)

GABAA = assay: SAFETYscan Ion Channel; type: cell-based; details: 10 uM
Method: as §1

TSSK1B = biological target: T14, TSSK1B (Homo sapiens, UniProt Q9BXA7); assay: KINOMEscan scanEDGE; type: binding; details: 20 uM
T14 construct: purchased Eurofins DiscoverX (KINOMEscan; SAFETYscan E/IC50 ELECT)

GSK3B = biological target: T15, GSK3B (Homo sapiens, UniProt P49841); assay: KINOMEscan scanEDGE; type: binding; details: 20 uM
T15 construct: purchased Eurofins DiscoverX (KINOMEscan; SAFETYscan E/IC50 ELECT)

CDK7 = biological target: T16, CDK7 (Homo sapiens, UniProt P50613); assay: KINOMEscan scanEDGE; type: binding; details: 20 uM
T16 construct: purchased Eurofins DiscoverX (KINOMEscan; SAFETYscan E/IC50 ELECT)

AR = biological target: T17, AR (Homo sapiens, UniProt P10275); assay: SAFETYscan NHR Nuclear Translocation; type: cell-based; set-up: dose or concentration left out as unconfirmed
T17 construct: purchased Eurofins DiscoverX (KINOMEscan; SAFETYscan E/IC50 ELECT)
Method: as §1

mouse TA myofibrils = assay: Myofibril ATPase, mouse TA; type: biochemical; details: mixed IIa, IIx, IIb
PDGFRB = biological target: T18, PDGFRB (Homo sapiens, UniProt P09619); assay: KINOMEscan scanEDGE; type: binding; details: 20 uM
T18 construct: purchased Eurofins DiscoverX (KINOMEscan; SAFETYscan E/IC50 ELECT)

ACVR1B = biological target: T19, ACVR1B (Homo sapiens, UniProt P36896); assay: KINOMEscan scanEDGE; type: binding; details: 20 uM
T19 construct: purchased Eurofins DiscoverX (KINOMEscan; SAFETYscan E/IC50 ELECT)

PDE4D2 = biological target: T20, PDE4D2 (Homo sapiens, UniProt Q08499); assay: SAFETYscan Enzymatic; type: biochemical; set-up: dose or concentration left out as unconfirmed; details: read-out: Max Response (%) (Antagonist)
T20 construct: purchased Eurofins DiscoverX (KINOMEscan; SAFETYscan E/IC50 ELECT)
Method: as §1

MAOA = biological target: T21, MAOA (Homo sapiens, UniProt P21397); assay: SAFETYscan Enzymatic; type: biochemical; set-up: dose or concentration left out as unconfirmed; details: read-out: Max Response (%) (Antagonist)
T21 construct: purchased Eurofins DiscoverX (KINOMEscan; SAFETYscan E/IC50 ELECT)
Method: as §1

PDE3A = biological target: T22, PDE3A (Homo sapiens, UniProt Q14432); assay: SAFETYscan Enzymatic; type: biochemical; set-up: dose or concentration left out as unconfirmed; details: read-out: Max Response (%) (Antagonist)
T22 construct: purchased Eurofins DiscoverX (KINOMEscan; SAFETYscan E/IC50 ELECT)
Method: as §1

COX1 = biological target: T23, COX1 (Homo sapiens, UniProt P23219); assay: SAFETYscan Enzymatic; type: biochemical; set-up: dose or concentration left out as unconfirmed; details: read-out: Max Response (%) (Antagonist)
T23 construct: purchased Eurofins DiscoverX (KINOMEscan; SAFETYscan E/IC50 ELECT)
Method: as §1

AChE = biological target: T24, AChE (Homo sapiens, UniProt P22303); assay: SAFETYscan Enzymatic; type: biochemical; set-up: dose or concentration left out as unconfirmed; details: read-out: Max Response (%) (Antagonist)
T24 construct: purchased Eurofins DiscoverX (KINOMEscan; SAFETYscan E/IC50 ELECT)
Method: as §1

COX2 = biological target: T25, COX2 (Homo sapiens, UniProt P35354); assay: SAFETYscan Enzymatic; type: biochemical; set-up: dose or concentration left out as unconfirmed; details: read-out: Max Response (%) (Antagonist)
T25 construct: purchased Eurofins DiscoverX (KINOMEscan; SAFETYscan E/IC50 ELECT)
Method: as §1

p38-alpha = biological target: T26, p38-alpha (Homo sapiens, UniProt Q16539); assay: KINOMEscan scanEDGE; type: binding; details: 20 uM
T26 construct: purchased Eurofins DiscoverX (KINOMEscan; SAFETYscan E/IC50 ELECT)

[2] = read-out: Max Response (%) (Agonist)
[3] = read-out: Max Response (%) (Antagonist)

T4 sequence (P20309 whole entry): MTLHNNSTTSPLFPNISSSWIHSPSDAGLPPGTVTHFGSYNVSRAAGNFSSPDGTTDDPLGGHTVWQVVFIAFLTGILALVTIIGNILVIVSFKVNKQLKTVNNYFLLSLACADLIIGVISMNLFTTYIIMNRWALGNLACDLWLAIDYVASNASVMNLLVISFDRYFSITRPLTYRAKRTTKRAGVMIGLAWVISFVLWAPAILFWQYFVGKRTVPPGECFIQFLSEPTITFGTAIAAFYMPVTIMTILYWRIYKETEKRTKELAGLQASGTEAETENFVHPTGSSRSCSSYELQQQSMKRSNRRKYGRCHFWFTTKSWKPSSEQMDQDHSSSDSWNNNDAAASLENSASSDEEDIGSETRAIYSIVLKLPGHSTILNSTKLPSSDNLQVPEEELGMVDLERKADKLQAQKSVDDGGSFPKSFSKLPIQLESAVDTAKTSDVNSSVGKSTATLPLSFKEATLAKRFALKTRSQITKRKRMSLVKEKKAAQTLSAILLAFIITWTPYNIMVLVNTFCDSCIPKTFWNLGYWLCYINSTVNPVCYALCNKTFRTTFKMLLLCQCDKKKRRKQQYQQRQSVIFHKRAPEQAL
T5 sequence (P37288 whole entry): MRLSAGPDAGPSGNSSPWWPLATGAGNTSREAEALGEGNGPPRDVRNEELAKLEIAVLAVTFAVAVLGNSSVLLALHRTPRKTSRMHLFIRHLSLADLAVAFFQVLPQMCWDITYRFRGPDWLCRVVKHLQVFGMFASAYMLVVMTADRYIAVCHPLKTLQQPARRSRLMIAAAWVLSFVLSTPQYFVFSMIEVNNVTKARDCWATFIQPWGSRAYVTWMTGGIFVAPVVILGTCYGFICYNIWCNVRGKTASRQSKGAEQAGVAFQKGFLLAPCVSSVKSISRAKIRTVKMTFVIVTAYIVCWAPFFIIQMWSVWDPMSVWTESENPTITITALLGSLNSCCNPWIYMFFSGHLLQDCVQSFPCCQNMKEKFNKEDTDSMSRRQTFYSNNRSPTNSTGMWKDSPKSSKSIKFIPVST
T6 sequence (P28223 whole entry): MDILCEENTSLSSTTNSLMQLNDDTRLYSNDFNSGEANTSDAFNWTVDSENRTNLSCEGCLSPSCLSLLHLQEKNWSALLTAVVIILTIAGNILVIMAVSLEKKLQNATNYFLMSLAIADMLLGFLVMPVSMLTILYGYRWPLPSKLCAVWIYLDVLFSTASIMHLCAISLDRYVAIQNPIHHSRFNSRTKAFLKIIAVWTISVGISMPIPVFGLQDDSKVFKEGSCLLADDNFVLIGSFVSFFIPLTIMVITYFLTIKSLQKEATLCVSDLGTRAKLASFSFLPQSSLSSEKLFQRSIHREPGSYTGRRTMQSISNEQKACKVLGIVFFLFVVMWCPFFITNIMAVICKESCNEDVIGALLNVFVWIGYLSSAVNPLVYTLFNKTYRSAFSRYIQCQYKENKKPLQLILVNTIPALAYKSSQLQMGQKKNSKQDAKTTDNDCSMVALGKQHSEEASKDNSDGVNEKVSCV
T17 sequence (P10275 whole entry): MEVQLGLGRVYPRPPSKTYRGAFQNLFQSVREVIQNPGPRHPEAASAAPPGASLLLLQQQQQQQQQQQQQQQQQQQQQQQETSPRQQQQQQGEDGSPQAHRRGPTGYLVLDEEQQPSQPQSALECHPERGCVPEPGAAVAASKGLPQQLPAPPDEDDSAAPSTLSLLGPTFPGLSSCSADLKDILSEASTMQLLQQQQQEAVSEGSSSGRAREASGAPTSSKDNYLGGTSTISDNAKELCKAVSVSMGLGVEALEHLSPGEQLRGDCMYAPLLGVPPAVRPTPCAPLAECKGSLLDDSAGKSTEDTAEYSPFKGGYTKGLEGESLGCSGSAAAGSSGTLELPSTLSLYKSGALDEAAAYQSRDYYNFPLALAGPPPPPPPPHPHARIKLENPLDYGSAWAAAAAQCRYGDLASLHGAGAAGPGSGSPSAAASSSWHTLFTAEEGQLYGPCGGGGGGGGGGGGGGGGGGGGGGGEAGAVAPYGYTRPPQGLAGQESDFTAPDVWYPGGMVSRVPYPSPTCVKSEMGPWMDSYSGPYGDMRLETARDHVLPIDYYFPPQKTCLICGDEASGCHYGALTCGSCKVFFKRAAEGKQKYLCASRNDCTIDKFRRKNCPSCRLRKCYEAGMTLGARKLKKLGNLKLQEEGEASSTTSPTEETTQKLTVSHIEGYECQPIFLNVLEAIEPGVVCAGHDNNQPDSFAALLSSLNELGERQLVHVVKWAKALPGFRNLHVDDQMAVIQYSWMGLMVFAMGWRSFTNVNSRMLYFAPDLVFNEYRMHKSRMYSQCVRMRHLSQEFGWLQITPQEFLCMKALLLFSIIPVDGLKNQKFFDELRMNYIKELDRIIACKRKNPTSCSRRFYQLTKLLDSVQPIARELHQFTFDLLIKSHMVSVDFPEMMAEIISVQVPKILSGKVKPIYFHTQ
T18 sequence (P09619 33-1106): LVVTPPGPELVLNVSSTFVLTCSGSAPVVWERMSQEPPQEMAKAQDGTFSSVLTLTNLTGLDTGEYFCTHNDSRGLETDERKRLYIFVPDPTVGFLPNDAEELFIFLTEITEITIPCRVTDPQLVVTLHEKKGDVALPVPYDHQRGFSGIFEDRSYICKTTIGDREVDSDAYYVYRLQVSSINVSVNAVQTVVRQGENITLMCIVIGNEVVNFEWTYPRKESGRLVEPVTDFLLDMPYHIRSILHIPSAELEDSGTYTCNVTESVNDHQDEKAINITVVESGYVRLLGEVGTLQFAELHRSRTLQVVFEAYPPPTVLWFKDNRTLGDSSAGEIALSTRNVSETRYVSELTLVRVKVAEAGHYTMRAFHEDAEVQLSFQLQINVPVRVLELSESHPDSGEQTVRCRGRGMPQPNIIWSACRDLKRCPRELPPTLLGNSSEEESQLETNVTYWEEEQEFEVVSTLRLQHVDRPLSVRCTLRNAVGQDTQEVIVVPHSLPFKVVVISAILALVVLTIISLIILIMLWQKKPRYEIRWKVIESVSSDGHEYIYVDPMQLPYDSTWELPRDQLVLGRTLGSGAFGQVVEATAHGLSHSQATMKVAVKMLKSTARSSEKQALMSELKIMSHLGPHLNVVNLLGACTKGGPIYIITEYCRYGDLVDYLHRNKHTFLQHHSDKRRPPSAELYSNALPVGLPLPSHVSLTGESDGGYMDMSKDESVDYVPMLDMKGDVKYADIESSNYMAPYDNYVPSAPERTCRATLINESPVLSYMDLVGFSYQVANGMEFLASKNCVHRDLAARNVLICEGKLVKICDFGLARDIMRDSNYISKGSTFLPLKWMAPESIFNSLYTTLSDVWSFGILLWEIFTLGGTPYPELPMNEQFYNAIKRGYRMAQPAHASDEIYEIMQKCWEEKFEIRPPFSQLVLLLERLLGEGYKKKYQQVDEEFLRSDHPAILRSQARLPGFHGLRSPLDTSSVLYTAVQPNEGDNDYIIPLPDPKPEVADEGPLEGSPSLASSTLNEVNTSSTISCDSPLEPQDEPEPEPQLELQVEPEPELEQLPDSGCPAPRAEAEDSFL
T2 sequence (P49137 whole entry): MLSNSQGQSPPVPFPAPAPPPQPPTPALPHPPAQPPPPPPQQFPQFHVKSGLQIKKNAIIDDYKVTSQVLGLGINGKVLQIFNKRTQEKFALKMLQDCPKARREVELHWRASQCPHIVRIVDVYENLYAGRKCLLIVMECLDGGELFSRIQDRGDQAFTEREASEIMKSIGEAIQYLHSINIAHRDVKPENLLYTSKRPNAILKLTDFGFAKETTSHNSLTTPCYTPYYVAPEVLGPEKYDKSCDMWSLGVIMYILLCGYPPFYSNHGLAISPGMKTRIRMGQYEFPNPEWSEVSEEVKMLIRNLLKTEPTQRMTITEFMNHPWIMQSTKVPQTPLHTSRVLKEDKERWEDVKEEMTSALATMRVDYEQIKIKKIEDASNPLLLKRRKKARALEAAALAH
T15 sequence (P49841 whole entry): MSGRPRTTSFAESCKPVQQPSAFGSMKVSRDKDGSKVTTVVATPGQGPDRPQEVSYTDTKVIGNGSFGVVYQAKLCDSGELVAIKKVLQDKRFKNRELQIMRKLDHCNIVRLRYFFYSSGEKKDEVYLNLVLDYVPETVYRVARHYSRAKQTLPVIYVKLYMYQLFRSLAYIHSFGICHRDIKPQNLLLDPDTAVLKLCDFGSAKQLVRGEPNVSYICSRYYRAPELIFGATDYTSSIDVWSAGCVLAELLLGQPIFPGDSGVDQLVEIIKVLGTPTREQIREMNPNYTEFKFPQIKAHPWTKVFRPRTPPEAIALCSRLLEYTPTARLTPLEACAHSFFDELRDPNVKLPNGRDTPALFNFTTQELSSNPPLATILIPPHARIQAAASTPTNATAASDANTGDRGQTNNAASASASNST
T8 sequence (P04049 whole entry): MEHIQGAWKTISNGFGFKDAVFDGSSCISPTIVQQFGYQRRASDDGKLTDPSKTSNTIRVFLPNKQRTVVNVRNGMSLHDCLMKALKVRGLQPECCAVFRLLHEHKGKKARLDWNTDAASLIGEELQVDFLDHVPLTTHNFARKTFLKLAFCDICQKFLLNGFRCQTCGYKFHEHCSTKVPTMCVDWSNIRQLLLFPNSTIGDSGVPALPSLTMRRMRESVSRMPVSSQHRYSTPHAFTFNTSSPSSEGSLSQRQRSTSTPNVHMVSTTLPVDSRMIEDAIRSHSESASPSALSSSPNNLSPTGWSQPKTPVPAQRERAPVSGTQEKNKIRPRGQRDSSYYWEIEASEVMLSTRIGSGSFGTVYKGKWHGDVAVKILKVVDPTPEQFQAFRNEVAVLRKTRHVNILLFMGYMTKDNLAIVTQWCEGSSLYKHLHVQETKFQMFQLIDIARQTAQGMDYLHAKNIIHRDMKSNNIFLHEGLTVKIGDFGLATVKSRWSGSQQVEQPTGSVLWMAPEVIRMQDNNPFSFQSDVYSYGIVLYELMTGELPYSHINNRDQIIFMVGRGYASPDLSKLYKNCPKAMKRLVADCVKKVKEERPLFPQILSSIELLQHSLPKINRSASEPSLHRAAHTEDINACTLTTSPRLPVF

SMILES: O=c1ccc(-c2cnc(OCC(F)(F)F)nc2)nn1Cc1cncc(F)c1 [EDG-5506]
- binding, % of control (PLK1): 100 % of control
- binding, % of control (MAPKAPK2): 100 % of control
- binding, % of control (IGF1R): 94 % of control
- Emax (CHRM3; [2]): 2.48%
- Emax (CHRM3; [3]): 2.14%
- Emax (AVPR1A; [2]): 0%
- Emax (AVPR1A; [3]): 0%
- Emax (HTR2A; [2]): 3.31%
- Emax (HTR2A; [3]): 0.4%
- binding, % of control (FGFR3): 96 % of control
- binding, % of control (RAF1): 100 % of control
- binding affinity with kinase panel (90 kinase proteins): did not exhibit any binding affinity
- muscle repair after cardiotoxin injury (healthy mice, TA muscle): did not interfere with muscle repair
- binding, % of control (EGFR(L858R)): 95 % of control
- binding, % of control (BRAF(V600E)): 93 % of control
- binding, % of control (BMPR2): 99 % of control
- binding, % of control [1]: 83 % of control
- binding, % of control (IKK-alpha): 93 % of control
- Max Response (%) (Agonist) (GABAA): 4.91%
- Max Response (%) (Antagonist) (GABAA): 7.72%
- binding, % of control (TSSK1B): 97 % of control
- binding, % of control (GSK3B): 99 % of control
- binding, % of control (CDK7): 83 % of control
- Emax (AR; [2]): 0%
- Emax (AR; [3]): 0%
- IC50 (mouse TA myofibrils): 400 nM
- binding, % of control (PDGFRB): 100 % of control
- binding, % of control (ACVR1B): 91 % of control
- Emax (PDE4D2): 7.16%
- Emax (MAOA): 7.79%
- Emax (PDE3A): 0.91%
- Emax (COX1): 4.78%
- Emax (AChE): 16.4%
- Emax (COX2): 3.26%
- binding, % of control (p38-alpha): 100 % of control
